{"source": "ChEMBL document CHEMBL3244064", "about": "“Conformational effects on the activity of drugs. 7. Synthesis and pharmacological properties of 2-(p-nitrophenyl)-substituted morpholines” (J Med Chem, 1979)", "type_in_all_cases": "protein assay", "key": {"[1]": {"target": "T1, Adrenergic receptor alpha (Rattus norvegicus) (UniProt P15823+P23944+P43140+P22086+P19328+P22909)", "test": "Stimulation of alpha-adrenergic receptor in ICEM:CER SPF Caw rat vas deferens assessed as muscle contraction after 2 to 3 mins relative to norepinephrine"}, "[2]": {"target": "T1, Adrenergic receptor alpha (Rattus norvegicus)", "test": "Stimulation of alpha-adrenergic receptor in ICEM:CER SPF Caw rat vas deferens assessed as potentiation of norepinephrine response at 50 uM after 2 to 3 mins"}, "[3]": {"target": "T1, Adrenergic receptor alpha (Rattus norvegicus)", "test": "Stimulation of alpha-adrenergic receptor in ICEM:CER SPF Caw rat vas deferens assessed as muscle contraction after 2 to 3 mins in presence of alpha-adrenoceptor blocker dihydroergotamine"}, "[4]": {"target": "T1, Adrenergic receptor alpha (Rattus norvegicus)", "test": "Stimulation of alpha-adrenergic receptor in reserpine-pretreated ICEM:CER SPF Caw rat vas deferens assessed as muscle contraction after 2 to 3 mins"}, "[5]": {"target": "T1, Adrenergic receptor alpha (Rattus norvegicus)", "test": "Stimulation of alpha-adrenergic receptor in ICEM:CER SPF Caw rat vas deferens assessed as muscle contraction after 2 to 3 mins relative to INPEA"}}, "note": "Calls of active or inactive are those of the source. No cut-off for these calls is given here."}
{"smiles": "CC(C)NCC(O)c1ccc([N+](=O)[O-])cc1", "note": "(stereo not drawn)", "values": [{"measurement": "Ratio", "setting": "[1]", "value": 0.0045}, {"measurement": "Activity", "setting": "[2]", "value": 209, "unit": "%"}, {"measurement": "Activity", "setting": "[3]", "value": "inactive"}, {"measurement": "Activity", "setting": "[4]", "value": "Active"}]}
{"smiles": "CC(C)(C)N1CCOC(c2ccc([N+](=O)[O-])cc2)C1", "note": "(stereo not drawn)", "values": [{"measurement": "Ratio", "setting": "[1]", "value": 0.0029}, {"measurement": "Ratio", "setting": "[5]", "value": 0.64}, {"measurement": "Activity", "setting": "[2]", "value": 169, "unit": "%"}, {"measurement": "Activity", "setting": "[3]", "value": "inactive"}]}
{"smiles": "CN1CCOC(c2ccc([N+](=O)[O-])cc2)C1", "note": "(stereo not drawn)", "values": [{"measurement": "Ratio", "setting": "[1]", "value": 0.0014}, {"measurement": "Ratio", "setting": "[5]", "value": 0.31}, {"measurement": "Activity", "setting": "[2]", "value": 192, "unit": "%"}, {"measurement": "Activity", "setting": "[3]", "value": "inactive"}]}
{"smiles": "CC(C)N1CCOC(c2ccc([N+](=O)[O-])cc2)C1", "note": "(stereo not drawn)", "values": [{"measurement": "Ratio", "setting": "[1]", "value": 0.0045}, {"measurement": "Ratio", "setting": "[5]", "value": 1}, {"measurement": "Activity", "setting": "[2]", "value": 223, "unit": "%"}, {"measurement": "Activity", "setting": "[3]", "value": "inactive"}, {"measurement": "Activity", "setting": "[4]", "value": "Active"}]}
{"smiles": "NCC(O)c1ccc([N+](=O)[O-])cc1", "note": "(stereo not drawn)", "values": [{"measurement": "Ratio", "setting": "[1]", "value": 0.0075}, {"measurement": "Ratio", "setting": "[5]", "value": 1.66}, {"measurement": "Activity", "setting": "[2]", "value": 179, "unit": "%"}, {"measurement": "Activity", "setting": "[3]", "value": "inactive"}]}
{"smiles": "O=[N+]([O-])c1ccc(C2CNCCO2)cc1", "note": "(stereo not drawn)", "values": [{"measurement": "Ratio", "setting": "[1]", "value": 0.0063}, {"measurement": "Ratio", "setting": "[5]", "value": 1.4}, {"measurement": "Activity", "setting": "[2]", "value": 203, "unit": "%"}, {"measurement": "Activity", "setting": "[3]", "value": "inactive"}]}
{"smiles": "CC(C)(C)NCC(O)c1ccc([N+](=O)[O-])cc1", "note": "(stereo not drawn)", "values": [{"measurement": "Ratio", "setting": "[1]", "value": 0.0012}, {"measurement": "Ratio", "setting": "[5]", "value": 0.27}, {"measurement": "Activity", "setting": "[2]", "value": 127, "unit": "%"}, {"measurement": "Activity", "setting": "[3]", "value": "inactive"}]}
{"smiles": "CNCC(O)c1ccc([N+](=O)[O-])cc1", "note": "(stereo not drawn)", "values": [{"measurement": "Ratio", "setting": "[1]", "value": 0.0047}, {"measurement": "Ratio", "setting": "[5]", "value": 1.04}, {"measurement": "Activity", "setting": "[2]", "value": 253, "unit": "%"}, {"measurement": "Activity", "setting": "[3]", "value": "inactive"}]}
